# According to patent US9631096B2, “Dye compositions, methods of preparation, conjugates thereof, and methods of use” (CORNELL UNIVERSITY, priority 2012, dated 2017):
# How the values were obtained:
# [1] = Single-molecule FRET with donor and acceptor dyes on ribosomal proteins S13 and L1; type: physicochemical, E. coli; conditions: ribosome S13/L1 labels, 532 nm excitation, same day and conditions, FIG. 12
# From the text: In this study, donor and acceptor fluorophores are attached to two ribosomal proteins (S13 small subunit; L1 large subunit, respectively).
# Ribosomal protein S13 was PCR cloned from E. coli strain K12 genomic DNA into the pPROEX HTb vector with a TEV-protease-cleavable histidine (His)6 tag and a 12-residue peptide encoding the S6 epitope for the Sfp phosphopantetheinyl transferase reaction (amino acid sequence, [sequence]) fused at the N terminus (N-Sfp). {Yin, J., Lin, A. J., Golan, D. E. & Walsh, C. […] 1, 280-285 (2006)} After transformation of this plasmid into an E. coli ΔS13 knockout strain, cells were cultured and ribosomes were harvested as previously described. {Wang, L., Altman, R. B. & Blanchard, S. C. […]
# Single-molecule FRET experiments were performed at room temperature in Tris-polymix with 5 mM Mg2+ buffer, as previously described {Wang, L., Altman, R. B. & Blanchard, S. C. […] The smFRET data were acquired by directly exciting the Cy3 fluorophore at 532 nm (LaserQuantum) while the Cy3 and Cy5 intensities were simultaneously recorded in Metamorph (Molecular Devices) with a 40-ms integration time. The data were analyzed in MATLAB (MathWorks) and plotted in Origin (OriginLab), as previously described. {Munro, J. B., Altman, R. B., O'Connor, N. & Blanchard, S. C.
# [2] = Single-molecule TIRF fluorescence imaging of dye-labeled duplex DNA (photostability); type: physicochemical
# Method: Each DNA strand was individually labeled with a single, NHS-activated “self-healing” fluorophore and hybridized to a complementary strand. Purified duplexes were used for single-molecule experiments.
# All experiments were performed using a laboratory built, prism-based TIRE apparatus. Biotinylated DNA molecules were immobilized via a biotin-streptavidin interaction within microfluidic channels constructed on quartz slides. Fluorescence from surface-immobilized molecules, illuminated via the evanescent wave generated by total internal reflection of a 640 nm laser source, was collected using a water-immersion objective and imaged onto a EMCCD camera. […]
# The photophysical properties of fluorophores were analyzed using automated software built in-house using Matlab. To extract kinetic parameters of blinking and photobleaching, the fluorescence traces were normalized to the mean fluorescence intensity of each dataset and idealized using the SKM algorithm and a 3-state model with one fluorescent (on) state, a transient dark state (blinking) and a permanent dark state (photobleaching). Time on (τon) was calculated by fitting the cumulative distribution to an exponential function.
# By tracking the fluorescence of individual molecules over time, the intensity and duration of fluorescence, as well as the kinetics of blinking and photobleaching could be quantified. […]
# [3] = Laser flash photolysis (time-resolved transient absorption) of Cy5 derivatives with benzophenone sensitizer; type: physicochemical; conditions: for lifetime of the 700 nm transient: acetonitrile, BP 5 mM, Cy5 22 μM
# From the text: This experiment examined whether enhanced photostability of the Cy5 fluorophore, when covalently linked to protective agents (COT, NBA or Trolox) (Chart 1) can be specifically attributed to a triplet state quenching mechanism using laser flash photolysis (time-resolved transient absorption spectroscopy).
# Because the formation of triplet states of Cy5 is inefficient (triplet quantum yield <0.003) upon direct excitation, a triplet sensitizer was employed to more efficiently populate the Cy5 triplet state (^3Cy5*) through an energy transfer mechanism (eq 1).
# Deoxygenated acetonitrile solutions containing BP and Cy5 were irradiated with light pulses from a Nd-YAG laser at 355 nm (5 ns pulse width) to generate transient absorption kinetic traces across the visible spectrum. From these traces, transient absorption spectra at different times after the laser pulse were constructed (FIG. 3). Directly after the laser pulse the spectrum is dominated by the triplet absorption of BP, which is known to show a peak at 525 nm. […] Assignment of this new transient at 700 nm as the triplet state absorption of Cy5 was subsequently confirmed by performing quenching studies in the presence of a small amount of oxygen (0.45 mM; generated by bubbling the acetonitrile solution with a gas mixture of 5% O2 and 95% N2).
# In addition to different protective agents (COT, NBA and Trolox), the length of the spacer between Cy5 and the protective agent was also varied. Laser flash photolysis experiments in argon-saturated acetonitrile solutions using BP as the sensitizer were performed on each of the Cy5 derivatives. […] The initial growth in transient absorption is caused by the energy transfer process from ^3BP* to the Cy5 chromophore analog in eq 1, which is then followed by the decay of the Cy5 triplet state. The concentrations of the Cy5 derivatives were optimized in order to ensure accurate triplet lifetime determination. […]
# [4] = cited from earlier work
structure (smiles),measurement,setting,value
CCN1C(=CC=CC2=[N+](CCCCCC(=O)O)c3ccc(S(=O)(=O)O)cc3C2(C)C)C(C)(C)c2cc(S(=O)(=O)[O-])ccc21 [Cy3],brightness and duration of donor and acceptor fluorescence / quality of FRET data,[1],short-lived and are noisy and relatively difficult to analyze
CCN1/C(=C/C=C/C=C/C2=[N+](CCCCCC(=O)O)c3ccc(S(=O)(=O)O)cc3C2(C)C)C(C)(C)c2cc(S(=O)(=O)[O-])ccc21 [Cy5],time period of fluorescence before blinking or photobleaching (visual inspection of traces),"[2]; individual fluorescence traces, dye on double stranded DNA, 641 nm",shortest
same,Average number of photons (10^4 photons) detected before photobleaching or blinking,"[2]; single-molecule measurements, dye on duplex DNA, TIRF, 641 nm illumination, deoxygenated solution",2.1 ± 0.1 10^4 photons
same,τtriplet (triplet lifetime),"[3]; deoxygenated acetonitrile, BP sensitizer, 355 nm pulse, triplet absorption at 700 nm",63 ± 3 μs
same,lifetime of the 700 nm transient,[3]; in the absence of O2 (argon purged),~22 μs
same,lifetime of the 700 nm transient,[3]; in the presence of O2 (0.45 mM; 5% O2/95% N2),1.7 μs
same,brightness and duration of donor and acceptor fluorescence / quality of FRET data,[1],short-lived and are noisy and relatively difficult to analyze
same,quantum yield,[4]; fluorescence,approximately 0.3
same,triplet quantum yield,[4]; upon direct excitation,< 0.003
